What was measured:
barnyardgrass [1] = assay: Test A preemergence; type: in vivo, Echinochloa crus-galli
Method in brief: (§1)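 Pre- and postemergence greenhouse screen. Soil: loam + sand. Spray carrier: solvent mixture, non-phytotoxic, with surfactant. Post timing at 1–2 leaves, height 2–10 cm. Readout: visual injury on a 0–100 scale roughly 10 days after application, untreated plants as reference.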

large (Lg) crabgrass [2] = assay: Test A preemergence; type: in vivo, Digitaria sanguinalis
Method in brief: as §1

giant foxtail [3] = assay: Test A preemergence; type: in vivo, Setaria faberii
Method in brief: as §1

morningglory [4] = assay: Test A preemergence; type: in vivo, Ipomoea spp.
Method in brief: as §1

pigweed [5] = assay: Test A preemergence; type: in vivo, Amaranthus retroflexus
Method in brief: as §1

velvetleaf [6] = assay: Test A preemergence; type: in vivo, Abutilon theophrasti
Method in brief: as §1

wheat [7] = assay: Test A preemergence; type: in vivo, Triticum aestivum
Method in brief: as §1

corn [8] = assay: Test A preemergence; type: in vivo, Zea mays
Method in brief: as §1

barnyardgrass [9] = assay: Test A postemergence; type: in vivo, Echinochloa crus-galli
Method in brief: as §1

large (Lg) crabgrass [10] = assay: Test A postemergence; type: in vivo, Digitaria sanguinalis
Method in brief: as §1

giant foxtail [11] = assay: Test A postemergence; type: in vivo, Setaria faberii
Method in brief: as §1

morningglory [12] = assay: Test A postemergence; type: in vivo, Ipomoea spp.
Method in brief: as §1

pigweed [13] = assay: Test A postemergence; type: in vivo, Amaranthus retroflexus
Method in brief: as §1

velvetleaf [14] = assay: Test A postemergence; type: in vivo, Abutilon theophrasti
Method in brief: as §1

wheat [15] = assay: Test A postemergence; type: in vivo, Triticum aestivum
Method in brief: as §1

corn [16] = assay: Test A postemergence; type: in vivo, Zea mays
Method in brief: as §1

rice = assay: Test B flooded paddy test; type: in vivo, Oryza sativa; conditions: Flood, 250 g ai/ha; 0 to 100 scale where 0 is no effect and 100 is complete control
Method in brief: (§2)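 Plants were grown to the 2-leaf stage, then pots were flooded to 3 cm above the soil and compounds were applied directly into the paddy water. That depth was held throughout, and after 13 to 15 days in the greenhouse injury was rated visually against controls on a 0–100 scale (0 no effect, 100 complete control).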

sedge, umbrella = assay: Test B flooded paddy test; type: in vivo, Cyperus difformis; conditions: Flood, 250 g ai/ha; 0 to 100 scale where 0 is no effect and 100 is complete control
Method in brief: as §2

Heteranthera limosa = assay: Test B flooded paddy test; type: in vivo; conditions: Flood, 250 g ai/ha; 0 to 100 scale where 0 is no effect and 100 is complete control
Method in brief: as §2

barnyardgrass [17] = assay: Test B flooded paddy test; type: in vivo, Echinochloa crus-galli; conditions: Flood, 250 g ai/ha; 0 to 100 scale where 0 is no effect and 100 is complete control
Method in brief: as §2

[18] = 125 g ai/ha, 0 to 100 scale where 0 is no effect and 100 is complete control
[19] = 500 g ai/ha, 0 to 100 scale, 0 no effect, 100 complete control, approx. 10 days
[20] = 500 g ai/ha, 0 to 100 scale, 0 no effect, 100 complete control

Row | Compound | Barnyardgrass plant response rating (barnyardgrass [1]; [19]) | Crabgrass, Large plant response rating (large (Lg) crabgrass [2]; [19]) | Foxtail, Giant plant response rating (giant foxtail [3]; [19]) | Morningglory plant response rating (morningglory [4]; [19]) | Pigweed plant response rating (pigweed [5]; [19]) | Velvetleaf plant response rating (velvetleaf [6]; [19]) | Wheat plant response rating (wheat [7]; [19]) | Corn plant response rating (corn [8]; [19]) | Plant response rating, Barnyardgrass (barnyardgrass [9]; [18]) | Plant response rating, Barnyardgrass (barnyardgrass [9]; [20]) | Plant response rating, Crabgrass, Large (large (Lg) crabgrass [10]; [18]) | Plant response rating, Crabgrass, Large (large (Lg) crabgrass [10]; [20]) | Plant response rating, Foxtail, Giant (giant foxtail [11]; [18]) | Plant response rating, Foxtail, Giant (giant foxtail [11]; [20]) | Plant response rating, Morningglory (morningglory [12]; [18]) | Plant response rating, Morningglory (morningglory [12]; [20]) | Plant response rating, Pigweed (pigweed [13]; [18]) | Plant response rating, Pigweed (pigweed [13]; [20]) | Plant response rating, Velvetleaf (velvetleaf [14]; [20]) | Plant response rating, Wheat (wheat [15]; [18]) | other results
1 | FC(F)(F)c1cnc(Oc2ccccc2-n2cc(C(F)(F)F)cn2)nc1 [Compound 17] | 60 | 90 | 90 | 20 | 100 | 90 | 70 | 0 | 0 | 20 | 20 | 90 | 20 | 90 | 20 | 50 | 70 | 100 | 100 | 0 | Barnyardgrass plant response rating (barnyardgrass [1]; [18]): 50; Crabgrass, Large plant response rating (large (Lg) crabgrass [2]; [18]): 40; Foxtail, Giant plant response rating (giant foxtail [3]; [18]): 60; Morningglory plant response rating (morningglory [4]; [18]): 0; Pigweed plant response rating (pigweed [5]; [18]): 100; Velvetleaf plant response rating (velvetleaf [6]; [18]): 70; Wheat plant response rating (wheat [7]; [18]): 0; Corn plant response rating (corn [8]; [18]): 0; Plant response rating, Velvetleaf (velvetleaf [14]; [18]): 50; Plant response rating, Wheat (wheat [15]; [20]): 50; Plant response rating, Corn (corn [16]; [18]): 0; Plant response rating, Corn (corn [16]; [20]): 40; Plant response rating, Rice (rice): 25; Plant response rating, Sedge, Umbrella (sedge, umbrella): 90; Plant response rating, Ducksalad (Heteranthera limosa): 75; Plant response rating, Barnyardgrass (barnyardgrass [17]): 0
2 | Clc1cnc(Oc2ccccc2-n2cc(Br)c(Br)n2)nc1 [Compound 19] | 20 | 90 | 90 | 0 | 100 | 20 | 0 | 0 | 0 | 20 | 0 | 20 | 0 | 30 | 0 | 40 | 30 | 90 | 60 | 0 | Plant response rating, Barnyardgrass (barnyardgrass [1]; [18]): 0; Plant response rating, Crabgrass, Large (large (Lg) crabgrass [2]; [18]): 0; Plant response rating, Foxtail, Giant (giant foxtail [3]; [18]): 20; Plant response rating, Morningglory (morningglory [4]; [18]): 0; Plant response rating, Pigweed (pigweed [5]; [18]): 0; Plant response rating, Velvetleaf (velvetleaf [6]; [18]): 0; Plant response rating, Wheat (wheat [7]; [18]): 0; Plant response rating, Corn (corn [8]; [18]): 0; Plant response rating, Velvetleaf (velvetleaf [14]; [18]): 30; Plant response rating, Wheat (wheat [15]; [20]): 0; Plant response rating, Corn (corn [16]; [18]): 0; Plant response rating, Corn (corn [16]; [20]): 30; Plant response rating, Rice (rice): 20; Plant response rating, Sedge, Umbrella (sedge, umbrella): 30; Plant response rating, Ducksalad (Heteranthera limosa): 40; Plant response rating, Barnyardgrass (barnyardgrass [17]): 0
3 | Cc1cnn(-c2ccccc2Oc2ncc(Cl)cn2)c1 [Compound 23] | 50 | 90 | 90 | 0 | 100 | 90 | 0 | 20 | 0 | 40 | 20 | 60 | 40 | 90 | 50 | 90 | 90 | 100 | 100 | 0 | Plant response rating, Barnyardgrass (barnyardgrass [1]; [18]): 20; Plant response rating, Crabgrass, Large (large (Lg) crabgrass [2]; [18]): 90; Plant response rating, Foxtail, Giant (giant foxtail [3]; [18]): 70; Plant response rating, Morningglory (morningglory [4]; [18]): 0; Plant response rating, Pigweed (pigweed [5]; [18]): 100; Plant response rating, Velvetleaf (velvetleaf [6]; [18]): 90; Plant response rating, Wheat (wheat [7]; [18]): 0; Plant response rating, Corn (corn [8]; [18]): 0; Plant response rating, Velvetleaf (velvetleaf [14]; [18]): 80; Plant response rating, Wheat (wheat [15]; [20]): 20; Plant response rating, Corn (corn [16]; [18]): 0; Plant response rating, Corn (corn [16]; [20]): 60; Plant response rating, Rice (rice): 35; Plant response rating, Sedge, Umbrella (sedge, umbrella): 70; Plant response rating, Ducksalad (Heteranthera limosa): 80; Plant response rating, Barnyardgrass (barnyardgrass [17]): 20
4 | Brc1cnc(Oc2ccccc2-n2cc(Br)c(Br)n2)nc1 [Compound 24] | 0 | 0 | 0 | 0 | 0 | 0 | 0 | 0 | 0 | 0 | 0 | 0 | 0 | 0 | 0 | 0 | 0 | 60 | 0 | 0 | Plant response rating, Barnyardgrass (barnyardgrass [1]; [18]): 0; Plant response rating, Crabgrass, Large (large (Lg) crabgrass [2]; [18]): 0; Plant response rating, Foxtail, Giant (giant foxtail [3]; [18]): 0; Plant response rating, Morningglory (morningglory [4]; [18]): 0; Plant response rating, Pigweed (pigweed [5]; [18]): 0; Plant response rating, Velvetleaf (velvetleaf [6]; [18]): 0; Plant response rating, Wheat (wheat [7]; [18]): 0; Plant response rating, Corn (corn [8]; [18]): 0; Plant response rating, Wheat (wheat [15]; [20]): 0; Plant response rating, Corn (corn [16]; [18]): 0; Plant response rating, Corn (corn [16]; [20]): 0; Plant response rating, Rice (rice): 35; Plant response rating, Sedge, Umbrella (sedge, umbrella): 60; Plant response rating, Ducksalad (Heteranthera limosa): 0; Plant response rating, Barnyardgrass (barnyardgrass [17]): 0

Source: patent US9695155B2, “Herbicidal substituted pyrimidinyloxy benzene compounds” (E. I. DU PONT DE NEMOURS AND COMPANY, priority 2013, dated 2017)
